According to patent publication US20230127326A1, “C3-SUBSTITUTED 1H-PYRAZOLO[4,3-d]PYRIMIDINE COMPOUNDS AS TOLL-LIKE RECEPTOR 7 (TLR7) AGONISTS” (BRISTOL-MYERS SQUIBB COMPANY, priority 2020, published 2023):
pEC50: −log10 of the molar value.

Legend:
human TLR7 = molecular target: T1, human TLR7 (Homo sapiens, UniProt Q9NYK1); assay: Human TLR7 agonist activity reporter assay (HEK-Blue TLR7 cells, SEAP reporter); format: cell-based; settings: 18 h treatment, average where assay was performed multiple times, read-out: hTLR7 Agonism EC50
T1 construct: host or cells: HEK-Blue TLR7 cells (engineered human embryonic kidney cells)
T1 sequence (Q9NYK1 27-1049): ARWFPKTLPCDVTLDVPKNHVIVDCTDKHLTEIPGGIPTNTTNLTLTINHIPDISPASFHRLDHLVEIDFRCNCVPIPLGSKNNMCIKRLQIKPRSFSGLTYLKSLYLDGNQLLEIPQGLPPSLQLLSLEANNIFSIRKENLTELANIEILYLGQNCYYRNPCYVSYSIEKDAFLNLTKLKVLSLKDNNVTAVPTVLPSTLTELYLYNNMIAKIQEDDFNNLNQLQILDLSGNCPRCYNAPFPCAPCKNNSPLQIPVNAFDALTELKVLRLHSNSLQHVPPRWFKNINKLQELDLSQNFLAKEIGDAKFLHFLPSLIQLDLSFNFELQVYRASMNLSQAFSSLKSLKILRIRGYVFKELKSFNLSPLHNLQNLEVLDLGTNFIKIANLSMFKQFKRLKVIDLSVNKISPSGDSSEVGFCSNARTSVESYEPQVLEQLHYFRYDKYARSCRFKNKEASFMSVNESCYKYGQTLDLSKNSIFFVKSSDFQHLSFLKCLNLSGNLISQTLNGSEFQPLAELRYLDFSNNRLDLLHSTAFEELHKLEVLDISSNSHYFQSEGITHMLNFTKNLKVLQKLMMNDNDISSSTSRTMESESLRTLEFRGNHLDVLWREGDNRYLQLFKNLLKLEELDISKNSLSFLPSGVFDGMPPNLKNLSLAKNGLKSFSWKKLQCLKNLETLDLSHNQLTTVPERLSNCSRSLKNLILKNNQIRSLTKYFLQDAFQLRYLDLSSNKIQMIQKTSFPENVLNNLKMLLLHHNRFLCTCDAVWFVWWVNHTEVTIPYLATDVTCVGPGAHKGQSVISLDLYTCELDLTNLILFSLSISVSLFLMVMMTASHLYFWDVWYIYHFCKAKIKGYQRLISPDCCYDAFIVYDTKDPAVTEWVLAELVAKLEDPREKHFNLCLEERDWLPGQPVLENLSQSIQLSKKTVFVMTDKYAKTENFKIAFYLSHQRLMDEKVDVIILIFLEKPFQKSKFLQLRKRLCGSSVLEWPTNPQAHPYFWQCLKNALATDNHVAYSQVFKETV
Description: This procedure describes a method for assaying human TLR7 (hTLR7) agonist activity of the compounds disclosed in this specification.
HEK-Blue™ TLR7 cells were added to each well of a 384-well tissue-culture plate (15,000 cells per well) and incubated 16-18 h at 37° C., 5% CO2. Compounds (100 nl) were dispensed into wells containing the HEK-Blue™ TLR cells and the treated cells were incubated at 37° C., 5% CO2. After 18 h treatment ten microliters of freshly-prepared Quanti-Blue™ reagent (Invivogen) was added to each well, incubated for 30 min (37° C., 5% CO2) and SEAP levels measured using an Envision plate reader (OD=620 nm). The half maximal effective concentration values (EC50; compound concentration which induced a response halfway between the assay baseline and maximum) were calculated.

CD69 = assay: Induction of CD69 in human whole blood; format: cell-based; settings: 17 hrs at 37° C., y-axis 100% set to 1 uM of resiquimod, average where assay was performed multiple times, read-out: hWB CD69 EC50
Description: The induction of Type I interferon (IFN) MX-1 genes and the B-cell activation marker CD69 are downstream events that occur upon activation of the TLR7 pathway. The following is a human whole blood assay that measures their induction in response to a TLR7 agonist.
Heparinized human whole blood was harvested from human subjects and treated with test TLR7 agonist compounds at 1 mM. The blood was diluted with RPMI 1640 media and Echo was used to predot 10 nL per well giving a final concentration of 1 uM (10 nL in 10 uL of blood). After mixing on a shaker for 30 sec, the plates were covered and placed in a 37° C. chamber for o/n=17 hrs. Fixing/lysis buffer was prepared (5×->1× in H2O, warm at 37° C.; Cat #BD 558049) and kept the perm buffer (on ice) for later use.
For surface markers staining (CD69): prepared surface Abs: 0.045 ul hCD14-FITC (ThermoFisher Cat #MHCD1401)+0.6 ul hCD19-ef450 (ThermoFisher Cat #48-0198-42)+1.5 ul hCD69-PE (cat #BD555531)+0.855 ul FACS buffer. Added 3 ul/well, spin 1000 rpm for 1 min and mixed on shaker for 30 sec, put on ice for 30 mins. Stop stimulation after 30 minutes with 70 uL of prewarmed 1× fix/lysis buffer and use Feliex mate to resuspend (15 times, change tips for each plate) and incubate at 37 C for 10 minutes.
Centrifuge at 2000 rpm for 5 minutes aspirate with HCS plate washer, mix on shaker for 30 sec and then wash with 70 uL in dPBS and pelleted 2×s (2000 rpm for 5 min) and 50 ul wash in FACS buffer pelleted 1×s (2000 rpm for 5 min). Mix on shaker for 30 sec. For Intracellular markers staining (MX-1): Add 50 ul of BD Perm buffer III and mix on shaker for 30 sec. Incubate on ice for 30 minutes (in the dark). Wash with 50 uL of FACS buffer 2× (spin @2300 rpm×5 min after perm) followed by mixing on shaker for 30 sec. Resuspended in 20 ul of FACS buffer containing MX1 antibody ( )(4812)-Alexa 647: Novus Biologicals #NBP2-43704AF647) 20 ul FACS bf+0.8 ul hIgG+0.04 ul MX-1. Spin 1000 rpm for 1 min, mix on shaker for 30 se and the samples were incubated at RT in the dark for 45 minutes followed by washing 2×FACS buffer (spin @2300 rpm×5 min after perm). Resuspend 20 ul (35 uL total per well) of FACS buffer and cover with foil and place in 4° C. to read the following day. Plates were read on iQuePlus. The results were loaded into toolset and […] curves are generated in curve master. The y-axis 100% is set to 1 uM of resiquimod.

Compound | pEC50 (human TLR7) | pEC50 (CD69)
CCCCNc1nc(N)nc2c(Br)nn(Cc3ccc(CNC4CCOCC4)cc3OC)c12 [Compound 101, 3-bromo-N7-butyl-1-[(2-methoxy-4-{[(oxan-4-yl)amino]methyl}phenyl)-methyl]-1H-pyrazolo[4,3-d]pyrimidine-5,7-diamine] | 5.70 | 6.44
CCCCNc1nc(N)nc2c(C3CC3)nn(Cc3ccc(CNC4CCOCC4)cc3OC)c12 [Compound 102, N7-butyl-3-cyclopropyl-1-[(2-methoxy-4-{[(oxan-4-yl)amino]methyl}phenyl)-methyl]-1H-pyrazolo[4,3-d]pyrimidine-5,7-diamine] | 6.68 | 7.46
CCCCNc1nc(N)nc2c(C)nn(Cc3ccc(CNC4CCC4)cc3OC)c12 [Compound 103, N7-butyl-1-({4-[(cyclobutylamino)methyl]-2-methoxyphenyl}methyl)-3-methyl-1H-pyrazolo[4,3-d]pyrimidine-5,7-diamine] | 6.99 | 7.81
CCCCNc1nc(N)nc2c(C)nn(Cc3ccc(CNC4CCOCC4)cc3OC)c12 [Compound 104, N7-butyl-1-[(2-methoxy-4-{[(oxan-4-yl)amino]methyl}-phenyl)methyl]-3-methyl-1H-pyrazolo[4,3-d]pyrimidine-5,7-diamine] | 7.04 | 7.38
CCCCNc1nc(N)nc2c(C)nn(Cc3ccc(CN4CCN(C)CC4)cc3OC)c12 [Compound 105, N7-butyl-1-({2-methoxy-4-[(4-methylpiperazin-1-yl)methyl]phenyl}methyl)-3-methyl-1H-pyrazolo[4,3-d]pyrimidine-5,7-diamine] | 7.21 | 8.03
CCCCNc1nc(N)nc2c(C)nn(Cc3ccc(CN4CCN(CCO)CC4)cc3OC)c12 [Compound 106, 2-{4-[(4-{[5-amino-7-(butylamino)-3-methyl-1H-pyrazolo[4,3-d]pyrimidin-1-yl]methyl}-3-methoxy-phenyl)methyl]piperazin-1-yl}ethan-1-ol] | 7.20 | 7.69
CCCCNc1nc(N)nc2c(F)nn(Cc3ccc(CNC4CCC4)cc3OC)c12 [Compound 107, N7-butyl-1-({4-[(cyclobutylamino)methyl]-2-methoxyphenyl}methyl)-3-fluoro-1H-pyrazolo[4,3-d]pyrimidine-5,7-diamine] | 7.33 | 7.55
CCCCNc1nc(N)nc2c(F)nn(Cc3ccc(CNC4CCOCC4)cc3OC)c12 [Compound 108, N7-butyl-3-fluoro-1-[(2-methoxy-4-{[(oxan-4-yl)amino]methyl}phenyl)-methyl]-1H-pyrazolo[4,3-d]pyrimidine-5,7-diamine] | 7.14 | 7.06
CCCCNc1nc(N)nc2c(F)nn(Cc3ccc(CN4CCN(C)CC4)cc3OC)c12 [Compound 109, N7-butyl-3-fluoro-1-({2-methoxy-4-[(4-methyl-piperazin-1-yl)methyl]-phenyl}methyl)-1H-pyrazolo[4,3-d]pyrimidine-5,7-diamine] | 7.92 | 8.08
CCCCNc1nc(N)nc2c(F)nn(Cc3ccc(CN4CCN(CCO)CC4)cc3OC)c12 [Compound 110, 2-{4-[(4-{[5-amino-7-(butylamino)-3-fluoro-1H-pyrazolo[4,3-d]pyrimidin-1-yl]methyl}-3-methoxyphenyl)methyl]-piperazin-1-yl}ethan-1-ol] | 7.64 | 7.35
CCCCNc1nc(N)nc2c(Cl)nn(Cc3ccc(CNC4CCOCC4)cc3OC)c12 [Compound 111, N7-butyl-3-chloro-1-[(2-methoxy-4-{[(oxan-4-yl)amino]methyl}phenyl)-methyl]-1H-pyrazolo[4,3-d]pyrimidine-5,7-diamine] | 5.85 | 7.01
CCCCNc1nc(N)nc2c(-c3ccncc3)nn(Cc3ccc(CNC4CCOCC4)cc3OC)c12 [Compound 112, N7-butyl-1-[(2-methoxy-4-{[(oxan-4-yl)amino]-methyl}phenyl)methyl]-3-(pyridin-4-yl)-1H-pyrazolo[4,3-d]pyrimidine-5,7-diamine] | 5.61 | 6.00
CCCCNc1nc(N)nc2c(-c3ccccc3)nn(Cc3ccc(CNC4CCOCC4)cc3OC)c12 [Compound 113, N7-butyl-1-[(2-methoxy-4-{[(oxan-4-yl)amino]methyl}-phenyl)methyl]-3-phenyl-1H-pyrazolo[4,3-d]pyrimidine-5,7-diamine] | – | 6.00
CCCCNc1nc(N)nc2c(-c3cccnc3)nn(Cc3ccc(CNC4CCOCC4)cc3OC)c12 [Compound 114, N7-butyl-1-[(2-methoxy-4-{[(oxan-4-yl)amino]methyl}-phenyl)methyl]-3-(pyridin-3-yl)-1H-pyrazolo[4,3-d]pyrimidine-5,7-diamine] | 6.54 | 7.37
CCCCNc1nc(N)nc2c(C(F)(F)F)nn(Cc3ccc(CNC4CCOCC4)cc3OC)c12 [Compound 117, N7-butyl-1-[(2-methoxy-4-{[(oxan-4-yl)amino]methyl}-phenyl)methyl]-3-(trifluoro-methyl)-1H-pyrazolo[4,3-d]pyrimidine-5,7-diamine] | – | 6.00
CCC[C@@H](CCO)Nc1nc(N)nc2c(C)nn(Cc3ncc(CN4CCN(CCO)CC4)cc3OC)c12 [Compound 135, (3S)-3-({5-amino-1-[(5-{[4-(2-hydroxyethyl)piperazin-1-yl]methyl}-3-methoxypyridin-2-yl)methyl]-3-methyl-1H-pyrazolo[4,3-d]pyrimidin-7-yl}amino)hexan-1-ol] | 5.96 | –
CCCCNc1nc(N)nc2c(C)nn(Cc3ccc(CN4CCN(CCOC)CC4)cc3OC)c12 [Compound 136, N7-butyl-1-[(2-methoxy-4-{[4-(2-methoxyethyl)piperazin-1-yl]methyl}phenyl)methyl]-3-methyl-1H-pyrazolo[4,3-d]pyrimidine-5,7-diamine] | 6.79 | –
CCCCNc1nc(N)nc2c(C)nn(Cc3ccc(CN4CCN(CC(C)(C)O)CC4)cc3OC)c12 [Compound 137, 1-{4-[(4-{[5-amino-7-(butylamino)-3-methyl-1H-pyrazolo[4,3-d]pyrimidin-1-yl]methyl}-3-methoxyphenyl)methyl]piperazin-1-yl}-2-methylpropan-2-ol] | 7.18 | –
